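Growth conditions: 96-well plates. Treatment: test compound, 48 hours, 5 concentrations. Analysis: linear interpolation between bracketing concentrations; unreached endpoints set to highest concentration. GI50: concentration for 50% inhibition of growth. At the TGI there is no net growth.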
How the values were obtained:
Assay in all cases: growth of human tumour cells (NCI), 48 h
[1] = system: IGROV1 ovarian
[2] = system: LOX IMVI melanoma
[3] = system: SN12C renal
[4] = system: CCRF-CEM leukemia
[5] = system: SK-MEL-5 melanoma
[6] = system: UACC-62 melanoma
[7] = system: PC-3 prostate
[8] = system: COLO 205 colon
[9] = system: MALME-3M melanoma
[10] = system: DU-145 prostate
[11] = system: MDA-MB-231 breast
[12] = system: HOP-62 NSCLC
[13] = system: MDA-MB-435
[14] = system: SK-MEL-28 melanoma
[15] = system: SNB-19 CNS
[16] = system: OVCAR-4 ovarian
[17] = system: EKVX NSCLC
[18] = system: SF-295 CNS
[19] = system: SNB-75 CNS
[20] = system: RPMI-8226 leukemia
[21] = system: TK-10 renal
[22] = system: M14 melanoma
[23] = system: HCT-15 colon
[24] = system: HT29 colon
[25] = system: RXF 393 renal
[26] = system: UO-31 renal
[27] = system: NCI-H522 lung
[28] = system: HL-60(TB) leukemia
[29] = system: A498 renal
[30] = system: SF-268 CNS
[31] = system: HCT-116 colon
[32] = system: OVCAR-5 ovarian
[33] = system: MOLT-4 leukemia
[34] = system: NCI-H226 lung
[35] = system: KM12 colon
[36] = system: HS 578T breast
[37] = system: UACC-257 melanoma
[38] = system: HCC-2998 colon
[39] = system: NCI-H23 lung
[40] = system: BT-549 breast
[41] = system: A549 NSCLC
[42] = system: SK-MEL-2 melanoma
[43] = system: HOP-92 NSCLC
[44] = system: SK-OV-3 ovarian
[45] = system: CAKI-1 renal
[46] = system: SF-539 CNS
[47] = system: NCI-H460 lung
[48] = system: MCF7 breast
[49] = system: SW-620 colon
[50] = system: NCI/ADR-RES ovarian
[51] = system: ACHN renal
[52] = system: OVCAR-8 ovarian
[53] = system: T-47D breast
[54] = system: 786-0 renal
[55] = system: OVCAR-3 ovarian

CCOC(=O)c1nnn(-c2no[n+]([O-])c2-c2ccc(OC)cc2)c1COc1cccc2cccnc12
GI50 [1]: 4.27 µM
TGI [1]: 16 µM
GI50 [2]: 0.355 µM
TGI [2]: 1.44 µM
GI50 [3]: 0.638 µM
TGI [3]: 3.55 µM
GI50 [4]: 0.318 µM
TGI [4]: > 100 µM
GI50 [5]: 3.46 µM
TGI [5]: 12.9 µM
GI50 [6]: 2.38 µM
TGI [6]: 12.8 µM
GI50 [7]: 3.98 µM
TGI [7]: 16.3 µM
GI50 [8]: 2.33 µM
TGI [8]: 5.5 µM
GI50 [9]: 2.44 µM
TGI [9]: 6.31 µM
GI50 [10]: 5.24 µM
TGI [10]: 17.1 µM
GI50 [11]: 2.73 µM
TGI [11]: 7.98 µM
GI50 [12]: 4.7 µM
TGI [12]: 25.9 µM
GI50 [13]: 1.16 µM
TGI [13]: 5.09 µM
GI50 [14]: 2.22 µM
TGI [14]: 6.15 µM
GI50 [15]: 3.25 µM
TGI [15]: 14 µM
GI50 [16]: 2.34 µM
TGI [16]: 13.3 µM
GI50 [17]: 7.79 µM
TGI [17]: 35.2 µM
GI50 [18]: 3.09 µM
TGI [18]: 13.7 µM
GI50 [19]: 3.41 µM
TGI [19]: 14.1 µM
GI50 [20]: 0.481 µM
TGI [20]: 3.38 µM
GI50 [21]: 2.59 µM
TGI [21]: 7.35 µM
GI50 [22]: 1.69 µM
TGI [22]: 7.49 µM
GI50 [23]: 2.38 µM
TGI [23]: 7.03 µM
GI50 [24]: 1.42 µM
TGI [24]: 3.45 µM
GI50 [25]: 1.77 µM
TGI [25]: 4.07 µM
GI50 [26]: 2.45 µM
TGI [26]: 8.2 µM
GI50 [27]: 0.51 µM
TGI [27]: 2.16 µM
GI50 [28]: 1.07 µM
TGI [28]: 5.31 µM
GI50 [29]: 2.15 µM
TGI [29]: 8.75 µM
GI50 [30]: 3.03 µM
TGI [30]: 15 µM
GI50 [31]: 0.391 µM
TGI [31]: 3.59 µM
GI50 [32]: 2.9 µM
TGI [32]: 8.21 µM
GI50 [33]: 1.91 µM
TGI [33]: 8.47 µM
GI50 [34]: 6.3 µM
TGI [34]: 39.7 µM
GI50 [35]: 4.32 µM
TGI [35]: 17.8 µM
GI50 [36]: 2.76 µM
TGI [36]: 13.3 µM
TGI [37]: 25.7 µM
GI50 [38]: 3.38 µM
TGI [38]: 9.98 µM
GI50 [39]: 3.79 µM
TGI [39]: 17.1 µM
GI50 [40]: 0.657 µM
TGI [40]: 3.1 µM
GI50 [41]: 3.87 µM
TGI [41]: 16.1 µM
GI50 [42]: 1.98 µM
TGI [42]: 9.95 µM
GI50 [43]: 5.09 µM
TGI [43]: 20.6 µM
GI50 [44]: 6.12 µM
TGI [44]: > 100 µM
GI50 [45]: 2.23 µM
TGI [45]: 6.38 µM
GI50 [46]: 2.19 µM
TGI [46]: 6.13 µM
GI50 [47]: 3.29 µM
TGI [47]: 11.5 µM
GI50 [48]: 1.97 µM
TGI [48]: 17 µM
GI50 [49]: 0.399 µM
TGI [49]: 1.8 µM
GI50 [50]: 3.05 µM
TGI [50]: 21.9 µM
GI50 [51]: 1.7 µM
TGI [51]: 3.29 µM
GI50 [52]: 2.23 µM
TGI [52]: 8.03 µM
GI50 [53]: 4.67 µM
TGI [53]: 28.8 µM
GI50 [54]: 2.29 µM
TGI [54]: 5.24 µM
GI50 [55]: 2.8 µM
TGI [55]: 7.05 µM

Reference: PubChem BioAssay (NCI)
